# Experimental data as given in US7871978B2, “Bone tropic peptides” (University of Virginia Patent Foundation, priority 2004, dated 2011).
# Tests used:
# [1] = tested on: human bone marrow endothelial cells (HBME); test: Peptide binding to HBME cells in culture (Avidin-FITC); set-up: key: ✓: Check marks indicate positive binding observed with FITC; −: a dash indicates a negative result
# Procedure: (§1) For localization of peptide binding to cells and tissue sections, biotinylated peptides were synthesized. Fluorescein-isothiocyanate (FITC) labeled Avidin was used to localize the peptides on cells in culture and in tissue sections in vitro by epiluminescence microscopy. In addition, the biotinylated peptides were detected at concentrations as low as 1 μM in slot blots.
# (§2) Bone marrow cells isolated from mouse femur were lifted with ethylenediaminetetraacetic acid (EDTA) and trypsin, resuspended, and allowed to attach on fibronectin-coated chamber slides for Avidin-FITC staining. […] The D1 cell is a multipotential mesenchymal stem-like line that was isolated from bone marrow and shown to have the characteristics of osteoprogenitor cells. This cell line has been well established and used successfully in several in vitro and in vivo studies in our laboratory. Peptide binding to human bone marrow endothelial cells (HBME) and bovine aortic endothelial cells (BAEC) in culture was also tested using the same procedure.
# bone and bone marrow = test: In vivo biopanning with 12-mer peptide phage display library; set-up: species or system BALB/c mice
# Excerpt: The Ph.D.-12 Phage Display Peptide Library Kit (New England Biolabs, Beverly, Mass.) used in this study is based on a combinatorial library of random peptide 12-mers fused to a minor coat protein (pIII). […] The peptide is followed by a short spacer of four amino acid residues, the first three residues of which are glycine and the fourth of which is serine, and then the wild-type III sequence. The library consists of approximately 2.7×10^9 electroporated sequences, amplified once to yield approximately 55 copies of each sequence.
# For in vivo biopanning, BALB/c mice 8 weeks of age were injected 3.4×10^10 pfu of phage into the heart. The animals were euthanized after 5 minutes, and the tissues (bone, bone marrow, kidney, liver, and spleen) were collected for analysis. The bound phage was eluted according the manufacturer's instructions. The eluted phage was titered, amplified, purified, and injected again at the same concentration.
# The frequency of each peptide in bone and bone marrow was compared with its location in other tissues such as liver, kidney, lung, spleen, and brain. Thirteen unique peptide sequences eluted from bone and marrow were identified were identified by sequencing phage DNA. The peptides were synthesized using the polystyrene solid support on a Protein Technologies Symphony Multiple Channel Synthesizer.
# [2] = tested on: Bone marrow cells isolated from mouse femur; test: Peptide binding to bone marrow cells in culture (Avidin-FITC); set-up: key to Localization of peptide binding: Marrow (cells in culture): ✓: Check marks indicate positive binding observed with FITC; −: a dash indicates a negative result
# Procedure: as §1, §2
# [3] = tested on: bone and marrow tissue sections (mouse femur, rib); test: Biotinylated peptide binding to bone/marrow tissue sections, Avidin-FITC fluorescence; set-up: key to Localization of peptide binding: Bone/Marrow (tissue sections): ✓: Check marks indicate positive binding observed with FITC; −: a dash indicates a negative result
# Procedure: Methods: Four-week old Swiss Webster mice were euthanized; the femurs were excised and decalcified in 0.25M EDTA in PBS solution for 5 days, and washed in PBS for 24 hours. The femoral shafts were obtained by cutting off the proximal and distal ends of the femur. The femoral shafts were placed in Tissue-Tek O.C.T. Compound (Sukura Finetek, Torrance, Calif.) and frozen at −20° C. overnight. Sections were cut at 10 μm serially with a cryomicrotome, rinsed with 1% BSA in PBS three times. To block non-specific reaction sections were incubated with Avidin/Biotin Blocking Kit (Vector Laboratories, Inc. Burlingame, Calif.) according to the manufacturer's instructions. Following another rinse with PBS, 150 μl 10 mM solution of each biotinylated peptide (L1, L2, L7, R1, R8) was added to the slides and incubated for 1 hour at room temperature. In negative controls, only PBS was added. After rewashes with 1% BSA, 150 μl of 1:50,000 dilution of Avidin-FITC was added to each slide and incubated overnight at 4° C.
# The sections were washed with 1% BSA in PBS and mounted with Vectashield (Vector Laboratories Inc., Burlingame, Calif.). Fluorescence was visualized using a Nikon eclipse E600 microscope (Nikon, Melville, N.Y.) equipped with a 535 nm wavelength fluorescein filter. Images were obtained using a Sony DKC-5000 digital camera (Sony Electronics Inc.) and processed with Adobe Photoshop software (Adobe Systems Incorporated, San Jose, Calif.).
# as §1
# Cryosections of decalcified femurs harvested from 4 week BALB/c mice were incubated with biotinylated peptide and Avidin-FITC. […] The distribution of fluorescence throughout the marrow was uneven. […] In control slides incubated with PBS without peptide, none of the cells could be detected by fluorescence (not shown). […]
# [4] = tested on: Unicortical femoral defects; test: Peptide-mediated osteogenesis in cortical bone defects (Example 8); format: in vivo, Fisher 344 rats; conditions: 100 mM peptide in gelfoam, two weeks postoperatively, versus gelfoam+PBS
# Procedure: In an in vivo study, all 13 peptides at a concentration of 100 mM were tested for their ability to potentiate osteogenesis. A gelfoam cylinder 1.5 mm in diameter 2 mm in length was used as carrier for the peptides. Unicortical femoral defects 1.5 mm in diameter were created bilaterally in Fisher 344 rats; the left femoral defect was filled with gelfoam+PBS (Control), and the right femur with gelfoam+peptide. The samples were harvested and examined two weeks postoperatively. To examine the effect of peptide concentration on cortical bone regeneration, peptide L7 (SEQ ID NO:5) was used at 1, 5, and 20 mM. […] The time course of cortical bone repair with 20 mM L7 was examined at 5, 10, 15, and 20 days.
# [5] = tested on: Membrane and cytosol fractions from bovine aortic endothelial cells; test: Affinity chromatography of BAEC fractions on immobilized peptide; format: binding
# Procedure: Membrane and cytosol fractions from human bone marrow endothelial cells and bovine aortic endothelial cells were prepared and used to identify the components from within these fractions that bind to the peptides using affinity chromatography). […] Cell surface nucleolin is present at higher concentrations in actively dividing cells and is down regulated in cells when they become quiescent. Nucleolin is the apparent cell surface receptor of E-coli intimin-gamma. Cell bound intimin has been proposed to trigger a host cell response similar to the extension of filipodia when cells bind to laminin. […] Table 3 provides a summary of peptide-binding partners (putative receptors) identified by affinity chromatography of cell lysates.
# [6] = tested on: bovine aortic endothelial cells (BAEC); test: Peptide binding to BAEC in culture (Avidin-FITC); set-up: key: ✓: Check marks indicate positive binding observed with FITC; −: a dash indicates a negative result
# Procedure: as §1, §2
# [7] = BALB/c mouse femur cryosections, biotinylated peptide
# [8] = Swiss Webster mouse femur cryosections, 10 mM biotinylated peptide
substance,measurement,setting,value
SER-TYR-SER-GLN-MET-ASP-PRO-PRO-ARG-SER-LEU-PRO-GLY-GLY-GLY-SER (SYSQMDPPRSLPGGGS; listed as Homo sapiens) [Peptide R8],Localization of peptide binding: HBME,[1],✓
same,PERCENT FREQUENCY,bone and bone marrow; phage eluted from bone and bone marrow,24.1%
same,PHAGE SEQUENCE FREQUENCY (number of times the sequence was found in a group of plaques),bone and bone marrow; phage eluted from bone and bone marrow after repeated rounds,7/29
same,Localization of peptide binding: Marrow (cells in culture),[2]; FITC,✓
same,Binding to adherent cells from bone marrow blowouts,"[2]; fibronectin-coated chamber slides, Avidin-FITC staining",showed detectable binding
same,Cell shape preferentially recognized by peptide,[3]; [7],recognized the round cells preferentially
same,Extent of marrow cells detected by fluorescence,[3]; [7],did not detect as many cells
same,Localization of peptide binding: Bone/Marrow (tissue sections),[3]; FITC,✓
same,Cell shape preferentially recognized by peptide,[3]; [8],recognized the round cells preferentially
same,Extent of marrow cells detected by fluorescence,[3]; [8],did not detect as many cells
same,Effectiveness at stimulating osteogenesis and cortical bone repair,[4],most effective at stimulating osteogenesis and cortical bone repair
same,Binding partner from BAEC lysates,[5]; biotinylated peptide immobilized on avidin-agarose,vimentin was found to bind
same,Identification of binding partners by affinity chromatography: BAEC,[5]; cell lysates,✓Vimentin
same,Localization of peptide binding: BAEC,[6],✓
